Results on 20 compounds are retold here after patent US9040528B2, “Chemical compounds 542” (AstraZeneca AB, priority 2008, dated 2015).

pIC50: −log10 of the molar value.

The target in the first assay is Escherichia coli DNA gyrase A/B tetramer (Escherichia coli (strain K12), UniProt P0AES4+P0AES6). The assay is described as follows: DNA gyrase supercoiling activity fluorescence polarisation assay. Type of assay: biochemical.
Details: not given
In outline: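 Supercoiling reactions quenched with 40 nM 5′-BODIPY-FL triplex-forming oligonucleotide probe in pH 3.5 NaCl/sodium acetate buffer; after 60 min, fluorescence anisotropy read (ex 485/em 535 nm). IC50 by nonlinear regression, normalised to 0.8% DMSO (100% activity) and 5 μM ciprofloxacin (0% activity).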
(In fluorescence polarisation assays a small probe gives low polarisation when free and higher when bound to something large.)
Compound `C[C@@H]1CN2c3c(cc4c(OC(=O)OC(C)(C)C)noc4c3F)CC3(C(=O)NC(=O)NC3=O)[C@H]2[C@H](C)O1` (relative stereo) [Example 102, tert-butyl(2R,4S,4aS)-rel-11-fluoro-2,4-dimethyl-2′,4′,6′-trioxo-1,1′,2,3′,4,4′,4a,6′-octahydro-2′H,6H-spiro[isoxazolo[4,5-g][1,4]oxazino[4,3-a]quinoline-5,5′-pyrimidin]-8-yl carbonate] gave a negative-log IC50 (pIC50) of 5.57.

The same assay, now with this note: 5 nM enzyme, relaxed plasmid, 0.3 mM ATP, ambient temperature; read-out: E. coli DNA gyrase supercoiling IC50.
Take `C[C@@H]1CN2c3c(cc4c(-c5ncc(C(=O)N(C)C)s5)noc4c3F)CC3(C(=O)NC(=O)NC3=O)[C@H]2[C@H](C)O1` (relative stereo) [Example 87, 2-[(2R,4S,4aS)-rel-11-fluoro-2,4-dimethyl-2′,4′,6′-trioxo-1,1′,2,3′,4,4′,4a,6′-octahydro-2′H,6H-spiro[1,4-oxazino[4,3-a][1,2]oxazolo[4,5-g]quinoline-5,5′-pyrimidin]-8-yl]-N,N-dimethyl-1,3-thiazole-5-carboxamide]: the pIC50 is 5.17.

Regarding `C[C@@H]1CN2c3c(cc4c(-c5scnc5C#N)noc4c3F)CC3(C(=O)NC(=O)NC3=O)[C@H]2[C@H](C)O1` (relative stereo) [Example 88, 5-[(2R,4S,4aS)-rel-11-fluoro-2,4-dimethyl-2′,4′,6′-trioxo-1,1′,2,3′,4,4′,4a,6′-octahydro-2′H,6H-spiro[1,4-oxazino[4,3-a][1,2]oxazolo[4,5-g]quinoline-5,5′-pyrimidin]-8-yl]-1,3-thiazole-4-carbonitrile], the pIC50 is 5.92.

As for `C[C@@H]1CN2c3c(cc4c(-c5nccn5C)noc4c3Cl)CC3(C(=O)NC(=O)NC3=O)[C@H]2[C@H](C)O1` (relative stereo) [Example 89, (2R,4S,4aS)-rel-11-chloro-2,4-dimethyl-8-(1-methyl-1H-imidazol-2-yl)-1,2,4,4a-tetrahydro-2′H,6H-spiro[1,4-oxazino[4,3-a][1,2]oxazolo[4,5-g]quinoline-5,5′-pyrimidine]-2′,4′,6′(1′H,3′H)-trione], the pIC50 is 5.89.

As for `Cc1ccc(-c2noc3c(F)c4c(cc23)CC2(C(=O)NC(=O)NC2=O)[C@H]2[C@H](C)O[C@H](C)CN42)cn1` (relative stereo) [Example 91, (2R,4S,4aS)-rel-11-fluoro-2,4-dimethyl-8-(6-methylpyridin-3-yl)-2,4,4a,6-tetrahydro-1H,1′H-spiro[isoxazolo[4,5-g][1,4]oxazino[4,3-a]quinoline-5,5′-pyrimidine]-2′,4′,6′(3′H)-trione], the negative-log IC50 (pIC50) is 5.72.

For the compound `C[C@@H]1CN2c3c(cc4c(C(=O)N5CC(F)(F)C5)noc4c3F)CC3(C(=O)NC(=O)NC3=O)[C@H]2[C@H](C)O1` (relative stereo) [Example 95, (2R,4S,4aS)-rel-8-(3,3-difluoroazetidine-1-carbonyl)-11-fluoro-2,4-dimethyl-2,4,4a,6-tetrahydro-1H,1′H-spiro[isoxazolo[4,5-g][1,4]oxazino[4,3-a]quinoline-5,5′-pyrimidine]-2′,4′,6′(3′H)-trione], the pIC50 is 6.52.

Take `C[C@@H]1CN2c3c(cc4c(-c5ccco5)noc4c3F)CC3(C(=O)NC(=O)NC3=O)[C@H]2[C@H](C)O1` (relative stereo) [Example 97, (2R,4S,4aS)-rel-11-fluoro-8-(furan-2-yl)-2,4-dimethyl-2,4,4a,6-tetrahydro-1H,1′H-spiro[isoxazolo[4,5-g][1,4]oxazino[4,3-a]quinoline-5,5′-pyrimidine]-2′,4′,6′(3′H)-trione]: the pIC50 is 6.15.

On to `C[C@@H]1CN2c3c(cc4c(-c5cncs5)noc4c3F)CC3(C(=O)NC(=O)NC3=O)[C@H]2[C@H](C)O1` (relative stereo) [Example 98, (2R,4S,4aS)-rel-11-fluoro-2,4-dimethyl-8-(thiazol-5-yl)-2,4,4a,6-tetrahydro-1H,1′H-spiro[isoxazolo[4,5-g][1,4]oxazino[4,3-a]quinoline-5,5′-pyrimidine]-2′,4′,6′(3′H)-trione], for which the negative logarithm of the IC50 (pIC50) is 6.40.

As to `C[C@@H]1CN2c3c(cc4c(-c5ccccc5F)noc4c3F)CC3(C(=O)NC(=O)NC3=O)[C@H]2[C@H](C)O1` (relative stereo) [Example 99, (2R,4S,4aS)-rel-11-fluoro-8-(2-fluorophenyl)-2,4-dimethyl-2,4,4a,6-tetrahydro-1H,1′H-spiro[isoxazolo[4,5-g][1,4]oxazino[4,3-a]quinoline-5,5′-pyrimidine]-2′,4′,6′(3′H)-trione], the pIC50 is 6.40.

As for `C[C@@H]1CN2c3c(cc4c(C5CCOCC5)noc4c3F)CC3(C(=O)NC(=O)NC3=O)[C@H]2[C@H](C)O1` (relative stereo) [Example 100, (2R,4S,4aS)-rel-11-fluoro-2,4-dimethyl-8-(tetrahydro-2H-pyran-4-yl)-2,4,4a,6-tetrahydro-1H,1′H-spiro[isoxazolo[4,5-g][1,4]oxazino[4,3-a]quinoline-5,5′-pyrimidine]-2′,4′,6′(3′H)-trione], the negative-log IC50 (pIC50) is 5.39.

For `Cc1c2c(cc3c(-c4cnccn4)noc13)CC1(C(=O)NC(=O)NC1=O)[C@H]1[C@H](C)O[C@H](C)CN21` (relative stereo) [Example 101, (2R,4S,4aS)-rel-2,4,11-trimethyl-8-(pyrazin-2-yl)-1,2,4,4a-tetrahydro-2′H,6H-spiro[1,4-oxazino[4,3-a][1,2]oxazolo[4,5-g]quinoline-5,5′-pyrimidine]-2′,4′,6′(1′H,3′H)-trione], the negative logarithm of the IC50 (pIC50) is 5.85.

With `COC[C@@H]1O[C@H](C)CN2c3c(cc4c(C)noc4c3F)CC3(C(=O)NC(=O)NC3=O)[C@@H]12` (relative stereo) [Example 105, (2R,4R,4aS)-rel-11-fluoro-4-(methoxymethyl)-2,8-dimethyl-1,2,4,4a-tetrahydro-2′H,6H-spiro[1,4-oxazino[4,3-a][1,2]oxazolo[4,5-g]quinoline-5,5′-pyrimidine]-2′,4′,6′(1′H,3′H)-trione], the pIC50 is 6.15.

Turning to `COC[C@@H]1CN2c3c(cc4c(C)noc4c3F)CC3(C(=O)NC(=O)NC3=O)[C@H]2[C@H](C)O1` (relative stereo) [Example 106, (2S,4S,4aS)-rel-11-fluoro-2-(methoxymethyl)-4,8-dimethyl-1,2,4,4a-tetrahydro-2′H,6H-spiro[1,4-oxazino[4,3-a][1,2]oxazolo[4,5-g]quinoline-5,5′-pyrimidine]-2′,4′,6′(1′H,3′H)-trione], the negative-log IC50 (pIC50) was 5.96.

`C[C@@H]1CN2c3c(nc4c(-c5ccccn5)noc4c3Cl)CC3(C(=O)NC(=O)NC3=O)[C@H]2[C@H](C)O1` (relative stereo) [Example 107, (2R,4S,4aS)-rel-11-chloro-2,4-dimethyl-8-(pyridyin-2-yl)-2,4,4a,6-tetrahydro-1H,1′H-spiro[isoxazolo[4,5-g][1,4]oxazino[4,3-a][1,5]naphthyridine-5,5′-pyrimidine]-2′,4′,6′(3′H)-trione]: the pIC50 was 5.85.

Take `C[C@@H]1CN2c3c(nc4c(-c5ccncc5)noc4c3Cl)CC3(C(=O)NC(=O)NC3=O)[C@H]2[C@H](C)O1` (relative stereo) [Example 108, (2R,4S,4aS)-rel-11-chloro-2,4-dimethyl-8-(pyridyin-4-yl)-2,4,4a,6-tetrahydro-1H,1′H-spiro[isoxazolo[4,5-g][1,4]oxazino[4,3-a][1,5]naphthyridine-5,5′-pyrimidine]-2′,4′,6′(3′H)-trione]: the pIC50 was 6.10.

For the compound `C[C@@H]1CN2c3c(nc4c(-c5cccnc5)noc4c3Cl)CC3(C(=O)NC(=O)NC3=O)[C@H]2[C@H](C)O1` (relative stereo) [Example 109, (2R,4S,4aS)-rel-11-chloro-2,4-dimethyl-8-(pyridyin-3-yl)-2,4,4a,6-tetrahydro-1H,1′H-spiro[isoxazolo[4,5-g][1,4]oxazino[4,3-a][1,5]naphthyridine-5,5′-pyrimidine]-2′,4′,6′(3′H)-trione], the pIC50 was 6.30.

As to `C[C@@H]1CN2c3c(nc4c(-c5cnccn5)noc4c3Cl)CC3(C(=O)NC(=O)NC3=O)[C@H]2[C@H](C)O1` (relative stereo) [Example 110, (2R,4S,4aS)-rel-11-chloro-2,4-dimethyl-8-(pyrazin-2-yl)-2,4,4a,6-tetrahydro-1H,1′H-spiro[isoxazolo[4,5-g][1,4]oxazino[4,3-a][1,5]naphthyridine-5,5′-pyrimidine]-2′,4′,6′(3′H)-trione], the pIC50 was 5.52.

For `C[C@@H]1CN2c3c(nc4c(-c5nccs5)noc4c3Cl)CC3(C(=O)NC(=O)NC3=O)[C@H]2[C@H](C)O1` (relative stereo) [Example 111, (2R,4S,4aS)-rel-11-chloro-2,4-dimethyl-8-(thiazol-2-yl)-2,4,4a,6-tetrahydro-1H,1′H-spiro[isoxazolo[4,5-g][1,4]oxazino[4,3-a][1,5]naphthyridine-5,5′-pyrimidine]-2′,4′,6′(3′H)-trione], the negative logarithm of the IC50 (pIC50) is 6.15.

With `Cc1csc(-c2noc3c(Cl)c4c(nc23)CC2(C(=O)NC(=O)NC2=O)[C@H]2[C@H](C)O[C@H](C)CN42)n1` (relative stereo) [Example 113, (2R,4S,4aS)-rel-11-Chloro-2,4-dimethyl-8-(4-methylthiazol-2-yl)-2,4,4a,6-tetrahydro-1H,1′H-spiro[isoxazolo[4,5-g][1,4]oxazino[4,3-a][1,5]naphthyridine-5,5′-pyrimidine]-2′,4′,6′(3′H)-trione], the negative logarithm of the IC50 (pIC50) is 5.60.

Take `C[C@@H]1CN2c3c(nc4c(-c5nccn5C)noc4c3Cl)CC3(C(=O)NC(=O)NC3=O)[C@H]2[C@H](C)O1` (relative stereo) [Example 114, (2R,4S,4aS)-rel-11-Chloro-2,4-dimethyl-8-(1-methyl-1H-imidazol-2-yl)-2,4,4a,6-tetrahydro-1H,1′H-spiro[isoxazolo[4,5-g][1,4]oxazino[4,3-a][1,5]naphthyridine-5,5′-pyrimidine]-2′,4′,6′(3′H)-trione]: the pIC50 was 5.28.

In general, pIC50 refers to the negative decadic logarithm of the IC50, by convention in mol/L.
